Measurements from ChEMBL document CHEMBL1143555, “Development of low molecular weight HIV-1 protease dimerization inhibitors” (J Med Chem, 2005).

The compounds below were run against T1, Human immunodeficiency virus type 1 protease (Human immunodeficiency virus 1, UniProt Q72874) (assay: Inhibitory concentration against human immunodeficiency virus-1 protease).
Compound CC[C@H](C)[C@@H](NC(=O)[C@@H](NC(=O)CCCCCCCCCCCCCCC(=O)N[C@H](CC(=O)N[C@@H](Cc1ccccc1)C(=O)O)C(N)=O)[C@H](C)O)C(=O)N1Cc2[nH]c3ccccc3c2CC1C(N)=O (some centres not stated) has an IC50 of 3100 nM.
Compound CCCCC(NC(=O)CCCCCCCCCCCCCCC(=O)N[C@H](CC(=O)N[C@@H](Cc1ccccc1)C(=O)O)C(N)=O)C(=O)N[C@@H](C(=O)N[C@@H](Cc1ccccc1)C(N)=O)C(C)CC (some centres not stated) has an IC50 of 1600 nM.
Work on CC[C@H](C)[C@@H](NC(=O)[C@@H](NC(=O)CCCCCCCCCCCCCCC(=O)N[C@H](CC(=O)N[C@@H](Cc1ccccc1)C(=O)O)C(N)=O)[C@H](C)O)C(=O)N[C@H](Cc1ccc(Br)cc1)C(N)=O yielded an IC50 of 1700 nM.
For CC[C@H](C)[C@@H](NC(=O)[C@@H](NC(=O)CCCCCCCCCCCCCCC(=O)N[C@H](CC(=O)N[C@@H](Cc1ccccc1)C(=O)O)C(N)=O)[C@H](C)O)C(=O)N[C@@H](Cc1ccc(N)cc1)C(N)=O, the IC50 was 3600 nM.
With CC[C@H](C)[C@@H](NC(=O)C(NC(=O)CCCCCCCCCCCCCCC(=O)N[C@H](CC(=O)N[C@@H](Cc1ccccc1)C(=O)O)C(N)=O)C(C)(C)C)C(=O)N[C@@H](Cc1ccccc1)C(N)=O (some centres not stated) the IC50 was 7700 nM.
CC[C@H](C)[C@@H](NC(=O)[C@@H](NC(=O)CCCCCCCCCCCCCCC(=O)N[C@H](CC(=O)N[C@@H](Cc1ccccc1)C(=O)O)C(N)=O)[C@H](C)O)C(=O)N[C@@H](Cc1ccc([N+](=O)[O-])cc1)C(N)=O was tested, and the IC50 was 590000 nM.
Work on CC[C@H](C)[C@@H](NC(=O)[C@H]([C@H](C)O)N(C)C(=O)CCCCCCCCCCCCCCC(=O)NC(Cc1ccc(O)cc1)C(=O)N[C@@H](Cc1ccccc1)C(=O)O)C(=O)NC(CO)C(N)=O (some centres not stated) yielded an IC50 of 774 nM.
CC(C)C[C@H](NC(=O)[C@@H](NC(=O)CCCCCCCCCCCCCCC(=O)N[C@H](CC(=O)N[C@@H](Cc1ccccc1)C(=O)O)C(N)=O)C(C)O)C(=O)N[C@@H](Cc1ccccc1)C(N)=O (some centres not stated) gave an IC50 of 5.4 nM.
With CC[C@H](C)[C@@H](NC(=O)[C@@H](NC(=O)CCCCCCCCCCCCCCC(=O)N[C@H](CC(=O)N[C@@H](Cc1ccccc1)C(=O)O)C(N)=O)[C@H](C)O)C(=O)N[C@@H](Cc1ccc(F)c(F)c1)C(N)=O the IC50 was 872000 nM.
With CC[C@H](C)[C@@H](NC(=O)[C@@H](NC(=O)CCCCCCCCCCCCCCC(=O)N[C@H](CC(=O)N[C@@H](Cc1ccccc1)C(=O)O)C(N)=O)[C@H](C)O)C(=O)N[C@@H](Cc1cc(I)c(O)c(I)c1)C(N)=O the IC50 was 740000 nM.
Work on CCC(C)[C@@H](NC(=O)C(NC(=O)CCCCCCCCCCCCCCC(=O)N[C@H](CC(=O)N[C@@H](Cc1ccccc1)C(=O)O)C(N)=O)c1ccccc1)C(=O)N[C@@H](Cc1ccccc1)C(N)=O (some centres not stated) yielded an IC50 of 2100 nM.
CCC(C)[C@@H](NC(=O)[C@H](C(C)O)N(C)C(=O)CCCCCCCCCCCCCCC(=O)NC(Cc1ccc(N)cc1)C(=O)N[C@@H](Cc1ccccc1)C(=O)O)C(=O)NC(CO)C(N)=O (some centres not stated) showed an IC50 of 1.2 nM.
CCC(C)[C@@H](NC(=O)[C@@H](NC(=O)CCCCCCCCCCCCCCC(=O)N[C@H](CC(=O)N[C@@H](Cc1ccccc1)C(=O)O)C(N)=O)C(C)O)C(=O)N[C@@H](Cc1ccccc1)C(N)=O (some centres not stated) was tested, and the IC50 was 1.1 nM.
CCC(C)[C@@H](NC(=O)[C@H](C(C)O)N(C)C(=O)CCCCCCCCCCCCCCC(=O)NC(Cc1ccc(OP(=O)(O)O)cc1)C(=O)N[C@@H](Cc1ccccc1)C(=O)O)C(=O)NC(CO)C(N)=O (some centres not stated) showed an IC50 of 2100 nM.
Work on CC[C@H](C)[C@@H](NC(=O)[C@@H](NC(=O)CCCCCCCCCCCCCCC(=O)N[C@H](CC(=O)N[C@@H](Cc1ccccc1)C(=O)O)C(N)=O)[C@H](C)O)C(=O)NC(CCc1ccccc1)C(N)=O (some centres not stated) yielded an IC50 of 1300 nM.
CCC(C)[C@@H](NC(=O)C(Cc1ccc(F)c(F)c1)NC(=O)CCCCCCCCCCCCCCC(=O)N[C@H](CC(=O)N[C@@H](Cc1ccccc1)C(=O)O)C(N)=O)C(=O)N[C@@H](Cc1ccccc1)C(N)=O (some centres not stated) showed an IC50 of 1100 nM.
CCC(C)[C@@H](NC(=O)C(CCc1ccccc1)NC(=O)CCCCCCCCCCCCCCC(=O)N[C@H](CC(=O)N[C@@H](Cc1ccccc1)C(=O)O)C(N)=O)C(=O)N[C@@H](Cc1ccccc1)C(N)=O (some centres not stated) was tested, and the IC50 was 980 nM.
Compound CC[C@H](C)[C@@H](NC(=O)[C@@H](NC(=O)CCCCCCCCCCCCCCC(=O)N[C@H](CC(=O)N[C@@H](Cc1ccccc1)C(=O)O)C(N)=O)[C@H](C)O)C(=O)N[C@H](Cc1ccc(C#N)cc1)C(N)=O has an IC50 of 1400 nM.

These compounds were tested against Human immunodeficiency virus type 1 protease (Human immunodeficiency virus 1) (UniProt Q72874) (assay: Percent inhibition of human immunodeficiency virus-1 protease after 1 uM treatment).
CCC(C)[C@@H](NC(=O)[C@@H](NC(=O)CCCCCCCCCCCCCCC(=O)N[C@H](CC(=O)N[C@@H](Cc1ccccc1)C(=O)O)C(N)=O)C(C)O)C(=O)NC(C(N)=O)c1ccccc1 (some centres not stated) showed an inhibition of 29%.
CCC(C)[C@@H](NC(=O)[C@@H](NC(=O)CCCCCCCCCCCCCCC(=O)N[C@H](CC(=O)N[C@@H](Cc1ccccc1)C(=O)O)C(N)=O)C(C)O)C(=O)NC(CO)C(N)=O (some centres not stated) was tested, and the inhibition was 8%.
CCCC(NC(=O)CCCCCCCCCCCCCCC(=O)N[C@H](CC(=O)N[C@@H](Cc1ccccc1)C(=O)O)C(N)=O)C(=O)N[C@@H](C(=O)N[C@@H](Cc1ccccc1)C(N)=O)[C@@H](C)CC (some centres not stated) was tested, and the inhibition was 14%.
For CCC(C)[C@@H](NC(=O)[C@@H](NC(=O)CCCCCCCCCCCCCCC(=O)N[C@H](CC(=O)N[C@@H](Cc1ccccc1)C(=O)O)C(N)=O)C(C)O)C(=O)NC(CC1CC1)C(N)=O (some centres not stated), the inhibition was 21%.

These compounds were tested against T1, Human immunodeficiency virus type 1 protease (assay: Inhibitory concentration against human immunodeficiency virus -1 protease).
CC[C@H](C)[C@@H](NC(=O)[C@H]([C@H](C)O)N(C)C(=O)CCCCCCCCCCCCCCC(=O)N[C@H](Cc1ccc(C#N)cc1)C(=O)N[C@@H](Cc1ccccc1)C(=O)O)C(=O)NC(CO)C(N)=O (some centres not stated) was tested, and the Ki was 140 nM.
CCC(C)[C@H](NC(=O)CCCCCCCCCCCCCCC(=O)N[C@@H](CC(N)=O)C(=O)NC(CC1CCCCC1)C(=O)O)C(=O)N[C@H](Cc1ccccc1)C(N)=O (some centres not stated) showed a Ki of 285 nM.
Work on CC[C@H](C)[C@@H](NC(=O)[C@@H](NC(=O)CCCCCCCCCCCCCCC(=O)N[C@H](CC(=O)N[C@@H](Cc1ccccc1)C(=O)O)C(N)=O)C(C)O)C(=O)N[C@@](C)(C(N)=O)c1cccc2ccccc12 (some centres not stated) yielded a Ki of 127 nM.
CCC(C)[C@H](NC(=O)CCCCCCCCCCCCCCC(=O)N[C@@H](CC(N)=O)C(=O)N[C@@H](Cc1ccc([N+](=O)[O-])cc1)C(=O)O)C(=O)N[C@H](Cc1ccccc1)C(N)=O (some centres not stated) gave a Ki of 384 nM.
CCC(C)[C@H](NC(=O)CCCCCCCCCCCCCCC(=O)N[C@@H](CC(N)=O)C(=O)NC(Cc1ccc2ccccc2c1)C(=O)O)C(=O)N[C@H](Cc1ccccc1)C(N)=O (some centres not stated) showed a Ki of 267 nM.
CC[C@H](C)[C@@H](NC(=O)[C@@H](NC(=O)CCCCCCCCCCCCCCC(=O)N[C@H](CC(=O)N[C@@H](Cc1ccccc1)C(=O)O)C(N)=O)[C@H](C)O)C(=O)NC(Cc1ccc([N+](=O)[O-])c(O)c1)C(N)=O (some centres not stated) showed a Ki of 164 nM.
For CC[C@H](C)[C@@H](NC(=O)[C@H]([C@H](C)O)N(C)C(=O)CCCCCCCCCCCCCCC(=O)NC(CC(C)C)C(=O)N[C@@H](Cc1ccccc1)C(=O)O)C(=O)NC(CO)C(N)=O (some centres not stated), the Ki was 273 nM.
CCC(C)[C@@H](NC(=O)[C@@H](NC(=O)CCCCCCCCCCCCCCC(=O)N[C@@H](Cc1ccc(O)c([N+](=O)[O-])c1)C(=O)N[C@@H](Cc1ccccc1)C(=O)O)C(C)O)C(=O)NC(CO)C(N)=O (some centres not stated) was tested, and the Ki was 102 nM.
In the case of CC[C@H](C)[C@@H](NC(=O)[C@@H](NC(=O)CCCCCCCCCCCCCCC(=O)N[C@H](CC(=O)N[C@@H](Cc1ccccc1)C(=O)O)C(N)=O)[C@H](C)O)C(=O)N[C@@H](Cc1ccc(C(=O)c2ccccc2)cc1)C(N)=O, the Ki is reported as 314 nM.
CC(C)C[C@H](NC(=O)[C@@H](NC(=O)CCCCCCCCCCCCCCC(=O)N[C@H](CC(=O)N[C@@H](Cc1ccccc1)C(=O)O)C(N)=O)C(C)O)C(=O)N[C@@H](Cc1ccccc1)C(N)=O (some centres not stated) showed a Ki of 3000 nM.
Compound CC[C@H](C)[C@@H](NC(=O)[C@H]([C@H](C)O)N(C)C(=O)CCCCCCCCCCCCCCC(=O)N[C@H](Cc1ccccc1)C(=O)N[C@@H](Cc1ccccc1)C(=O)O)C(=O)NC(CO)C(N)=O (some centres not stated) has a Ki of 112 nM.
CCC(C)[C@@H](NC(=O)[C@@H](NC(=O)CCCCCCCCCCCCCCC(=O)N[C@@H](Cc1ccc(F)c(F)c1)C(=O)N[C@@H](Cc1ccccc1)C(=O)O)C(C)O)C(=O)NC(CO)C(N)=O (some centres not stated) showed a Ki of 106 nM.
Work on CCC(C)[C@@H](NC(=O)[C@@H](NC(=O)CCCCCCCCCCCCCCC(=O)N[C@@H](Cc1ccc([N+](=O)[O-])cc1)C(=O)N[C@@H](Cc1ccccc1)C(=O)O)C(C)O)C(=O)NC(CO)C(N)=O (some centres not stated) yielded a Ki of 103 nM.
With CCC(C)[C@@H](NC(=O)[C@@H](NC(=O)CCCCCCCCCCCCCCC(=O)N[C@H](CC(=O)N[C@@H](Cc1ccccc1)C(=O)O)C(N)=O)C(C)O)C(=O)N[C@@H](Cc1ccccc1)C(N)=O (some centres not stated) the Ki was 210000 nM.
CC[C@H](C)[C@@H](NC(=O)[C@@H](NC(=O)CCCCCCCCCCCCCCC(=O)N[C@H](CC(=O)N[C@@H](Cc1ccccc1)C(=O)O)C(N)=O)[C@H](C)O)C(=O)N[C@@H](Cc1ccccc1)C(=O)N[C@@H](Cc1ccccc1)C(N)=O showed a Ki of 361 nM.
With CCC(C)[C@H](NC(=O)CCCCCCCCCCCCCCC(=O)N[C@@H](CC(N)=O)C(=O)N[C@@H](CCc1ccccc1)C(=O)O)C(=O)N[C@H](Cc1ccccc1)C(N)=O (some centres not stated) the Ki was 268 nM.
In the case of CC[C@H](C)[C@@H](NC(=O)CCCCCCCCCCCCCCC(=O)N(C)[C@H](C(=O)N[C@@H](C(=O)NC(CO)C(N)=O)[C@@H](C)CC)[C@H](C)O)C(=O)N[C@@H](Cc1ccccc1)C(=O)O (some centres not stated), the Ki is reported as 140000 nM.
For CCC(C)[C@H](NC(=O)CCCCCCCCCCCCCCC(=O)N[C@@H](CC(N)=O)C(=O)N[C@@H](Cc1ccc(C(=O)c2ccccc2)cc1)C(=O)O)C(=O)N[C@H](Cc1ccccc1)C(N)=O (some centres not stated), the Ki was 223 nM.
In the case of CCC(C)[C@H](NC(=O)CCCCCCCCCCCCCCC(=O)N[C@@H](CC(N)=O)C(=O)NC(C(=O)O)C1CCCCC1)C(=O)N[C@H](Cc1ccccc1)C(N)=O (some centres not stated), the Ki is reported as 254 nM.
CC[C@H](C)[C@@H](NC(=O)[C@H]([C@H](C)O)N(C)C(=O)CCCCCCCCCCCCCCC(=O)N[C@@H](C(=O)N[C@@H](Cc1ccccc1)C(=O)O)C(C)C)C(=O)NC(CO)C(N)=O (some centres not stated) gave a Ki of 202 nM.
CC[C@H](C)[C@@H](NC(=O)[C@H]([C@H](C)O)N(C)C(=O)CCCCCCCCCCCCCCC(=O)Nc1ccccc1C(=O)N[C@@H](Cc1ccccc1)C(=O)O)C(=O)NC(CO)C(N)=O (some centres not stated) showed a Ki of 235000 nM.
In the case of CC[C@H](C)[C@@H](NC(=O)[C@@H](NC(=O)CCCCCCCCCCCCCCC(=O)N[C@H](CC(=O)N[C@@H](Cc1ccccc1)C(=O)O)C(N)=O)[C@H](C)O)C(=O)N[C@@H](Cc1ccc(OCc2ccccc2)cc1)C(N)=O, the Ki is reported as 414 nM.
Compound CCC(C)[C@@H](NC(=O)C(CCC(C)C)NC(=O)CCCCCCCCCCCCCCC(=O)N[C@H](CC(=O)N[C@@H](Cc1ccccc1)C(=O)O)C(N)=O)C(=O)N[C@@H](Cc1ccccc1)C(N)=O (some centres not stated) has a Ki of 502000 nM.
Compound CCC(C)[C@@H](NC(=O)[C@@H](NC(=O)CCCCCCCCCCCCCCC(=O)N[C@@H](C(=O)N[C@@H](Cc1ccccc1)C(=O)O)c1ccc(OCc2ccccc2)cc1)C(C)O)C(=O)NC(CO)C(N)=O (some centres not stated) has a Ki of 110 nM.
Compound CC[C@H](C)[C@@H](NC(=O)[C@H]([C@H](C)O)N(C)C(=O)CCCCCCCCCCCCCCC(=O)N[C@H](CCc1ccccc1)C(=O)N[C@@H](Cc1ccccc1)C(=O)O)C(=O)NC(CO)C(N)=O (some centres not stated) has a Ki of 160 nM.
